We go through one compound from PMC7393338 (Acta Pharmacologica Sinica, 2020).

Usually inhibition stands for the relative decrease from the control value, in per cent.

For data set [1] the following is noted: intratracheal administration versus other routes, rats.
The next data set concerns the target SARS-CoV-2 PLpro (Severe acute respiratory syndrome coronavirus 2, UniProt P0DTD1). The data set can be described thus: biochemical. The conditions noted are these: read-out: PLpro Inhibition (%).

In the case of `O=c1cc(-c2ccccc2)oc2cc(O)c(O)c(O)c12` [Baicalein], in data set [1], the “target tissue (lung) distribution” value is “significantly increase their target tissue distribution”. Moreover, the inhibition at 50 µM at SARS-CoV-2 PLpro is under 50%.
